Source: ChEMBL document CHEMBL5390317, “Novel Indane-Containing NBTIs with Potent Anti-Gram-Negative Activity and Minimal hERG Inhibition” (ACS Med Chem Lett, 2023)
≈ marks a conversion by molar mass, not a printed value.

How the values were obtained:
Pseudomonas aeruginosa [1] = test: Antibacterial activity against Pseudomonas aeruginosa NCTC 13437 assessed as inhibition in bacterial growth incubated for 20 to 24 hrs by CLSI based broth microdilution method; format: functional; conditions: Pseudomonas aeruginosa, NCTC 13437, time 20-24 hrs; read-out: MIC
[2] = Inhibition of Escherichia coli topoisomerase 4 incubated for 120 mins by Transcreener ADP2 FI assay
Escherichia coli [3] = test: Antibacterial activity against Escherichia coli K-12 BW25113 assessed as inhibition in bacterial growth incubated for 20 to 24 hrs by CLSI based broth microdilution method; format: functional; conditions: Escherichia coli, K-12 BW25113, time 20-24 hrs; read-out: MIC
Escherichia coli [4] = test: Antibacterial activity against Escherichia coli ATCC BAA-2340 assessed as inhibition in bacterial growth incubated for 20 to 24 hrs by CLSI based broth microdilution method; format: functional; conditions: Escherichia coli, ATCC BAA-2340, time 20-24 hrs; read-out: MIC
Escherichia coli [5] = test: Antibacterial activity against Escherichia coli ATCC 25922 assessed as inhibition in bacterial growth incubated for 20 to 24 hrs by CLSI based broth microdilution method; format: functional; conditions: time 20-24 hrs
Klebsiella pneumoniae [6] = test: Antibacterial activity against Klebsiella pneumoniae ATCC BAA-1705 assessed as inhibition in bacterial growth incubated for 20 to 24 hrs by CLSI based broth microdilution method; format: functional; conditions: time 20-24 hrs
Klebsiella pneumoniae [7] = test: Antibacterial activity against Klebsiella pneumoniae ATCC 700603 assessed as inhibition in bacterial growth incubated for 20 to 24 hrs by CLSI based broth microdilution method; format: functional; conditions: Klebsiella pneumoniae, ATCC 700603, time 20-24 hrs; read-out: MIC
Pseudomonas aeruginosa [8] = test: Antibacterial activity against Pseudomonas aeruginosa ATCC 27853 assessed as inhibition in bacterial growth incubated for 20 to 24 hrs by CLSI based broth microdilution method; format: functional; conditions: time 20-24 hrs
Klebsiella pneumoniae [9] = test: Antibacterial activity against Klebsiella pneumoniae ATCC BAA-2146 assessed as inhibition in bacterial growth incubated for 20 to 24 hrs by CLSI based broth microdilution method; format: functional; conditions: Klebsiella pneumoniae, ATCC BAA-2146, time 20-24 hrs; read-out: MIC
hERG (KCNH2) [10] = target: T1, hERG (KCNH2) (Homo sapiens, UniProt Q12809); test: (§1) Inhibition of hERG potassium channel expressed in CHO cells by electrophysiological patch clamp assay; format: toxicity, cell-based; conditions: human, CHO cells expressing hERG
T1 sequence (Q12809 whole entry): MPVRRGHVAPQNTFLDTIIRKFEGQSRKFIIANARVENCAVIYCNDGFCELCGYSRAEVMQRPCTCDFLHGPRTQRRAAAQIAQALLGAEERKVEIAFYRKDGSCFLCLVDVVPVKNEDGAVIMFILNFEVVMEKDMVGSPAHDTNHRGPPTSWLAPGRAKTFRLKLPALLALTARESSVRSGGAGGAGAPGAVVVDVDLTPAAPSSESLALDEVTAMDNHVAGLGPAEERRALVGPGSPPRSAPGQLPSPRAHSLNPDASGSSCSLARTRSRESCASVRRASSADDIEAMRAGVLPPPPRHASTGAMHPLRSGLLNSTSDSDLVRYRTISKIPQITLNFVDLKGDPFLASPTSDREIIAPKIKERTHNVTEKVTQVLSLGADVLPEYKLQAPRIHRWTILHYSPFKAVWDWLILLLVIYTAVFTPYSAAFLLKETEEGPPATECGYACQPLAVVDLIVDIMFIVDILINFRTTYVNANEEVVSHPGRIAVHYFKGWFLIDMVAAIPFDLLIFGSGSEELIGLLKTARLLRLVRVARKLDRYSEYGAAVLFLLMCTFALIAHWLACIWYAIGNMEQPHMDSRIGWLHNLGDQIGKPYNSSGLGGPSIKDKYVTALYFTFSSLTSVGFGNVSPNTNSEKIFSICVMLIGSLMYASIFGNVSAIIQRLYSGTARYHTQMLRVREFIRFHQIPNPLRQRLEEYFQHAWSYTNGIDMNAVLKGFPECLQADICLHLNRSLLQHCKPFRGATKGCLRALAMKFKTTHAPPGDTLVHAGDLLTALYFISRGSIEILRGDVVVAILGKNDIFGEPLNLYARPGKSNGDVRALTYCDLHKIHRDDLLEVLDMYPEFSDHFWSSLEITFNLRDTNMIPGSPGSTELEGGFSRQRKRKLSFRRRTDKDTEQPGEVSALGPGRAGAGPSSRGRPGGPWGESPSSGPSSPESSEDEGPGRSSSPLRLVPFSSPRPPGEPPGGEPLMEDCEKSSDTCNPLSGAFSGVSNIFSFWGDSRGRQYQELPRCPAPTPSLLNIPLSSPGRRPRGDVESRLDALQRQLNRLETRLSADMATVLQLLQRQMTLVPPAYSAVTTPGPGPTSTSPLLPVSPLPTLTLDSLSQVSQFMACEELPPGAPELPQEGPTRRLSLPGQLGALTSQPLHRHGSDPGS

[11] = target: Voltage-gated inwardly rectifying potassium channel KCNH2 (Homo sapiens, UniProt Q12809); test: as §1; format: toxicity, cell-based
Chain of Voltage-gated inwardly rectifying potassium channel KCNH2 (Q12809 whole entry): as above

Staphylococcus aureus [12] = test: Antibacterial activity against Staphylococcus aureus ATCC 29213 assessed as inhibition in bacterial growth incubated for 20 to 24 hrs by CLSI based broth microdilution method; format: functional; conditions: Staphylococcus aureus, ATCC 29213; time 20-24 hrs; read-out: MIC
Escherichia coli [13] = test: Antibacterial activity against Escherichia coli K-12 BW25113 deltaTolC assessed as inhibition in bacterial growth incubated for 20 to 24 hrs by CLSI based broth microdilution method; format: functional; conditions: time 20-24 hrs
Pseudomonas aeruginosa [14] = test: Antibacterial activity against Pseudomonas aeruginosa NCTC 11451 assessed as inhibition in bacterial growth incubated for 20 to 24 hrs by CLSI based broth microdilution method; format: functional; conditions: Pseudomonas aeruginosa, NCTC 11451, time 20-24 hrs; read-out: MIC
Escherichia coli [15] = test: Antibacterial activity against Escherichia coli ATCC 35218 assessed as inhibition in bacterial growth incubated for 20 to 24 hrs by CLSI based broth microdilution method; format: functional; conditions: Escherichia coli, ATCC 35218, time 20-24 hrs; read-out: MIC
Acinetobacter baumannii [16] = test: Antibacterial activity against Acinetobacter baumannii ATCC 19606 assessed as inhibition in bacterial growth incubated for 20 to 24 hrs by CLSI based broth microdilution method; format: functional; conditions: time 20-24 hrs
hERG (KCNH2) [17] = target: T1, hERG (KCNH2); test: Inhibition of hERG potassium channel expressed in CHO cells at 1 uM by electrophysiological patch clamp assay relative to control; format: toxicity, cell-based; conditions: CHO cells expressing hERG
Klebsiella pneumoniae [18] = test: Antibacterial activity against Klebsiella pneumoniae ATCC 10031 assessed as inhibition in bacterial growth incubated for 20 to 24 hrs by CLSI based broth microdilution method; format: functional; conditions: time 20-24 hrs
hERG (KCNH2) [19] = target: T1, hERG (KCNH2); test: Inhibition of hERG potassium channel expressed in CHO cells at 10 uM by electrophysiological patch clamp assay relative to control; format: toxicity, cell-based; conditions: CHO cells expressing hERG
Acinetobacter baumannii [20] = test: Antibacterial activity against Acinetobacter baumannii ATCC 51432 assessed as inhibition in bacterial growth incubated for 20 to 24 hrs by CLSI based broth microdilution method; format: functional; conditions: Acinetobacter baumannii, ATCC 51432, time 20-24 hrs; read-out: MIC
Acinetobacter baumannii [21] = test: Antibacterial activity against Acinetobacter baumannii ATCC BAA-747 assessed as inhibition in bacterial growth incubated for 20 to 24 hrs by CLSI based broth microdilution method; format: functional; conditions: Acinetobacter baumannii, ATCC BAA-747, time 20-24 hrs; read-out: MIC
DNA gyrase = DNA gyrase (Escherichia coli, UniProt P0AES4+P0AES6); test: Inhibition of Escherichia coli DNA gyrase incubated for 80 mins by Transcreener ADP2 FI assay; format: protein-complex assay
Staphylococcus aureus [22] = test: Antibacterial activity against Staphylococcus aureus ATCC BAA-1556 assessed as inhibition in bacterial growth incubated for 20 to 24 hrs by CLSI based broth microdilution method; format: functional; conditions: Staphylococcus aureus, ATCC BAA-1556, time 20-24 hrs; read-out: MIC
[23] = Stability in rat plasma; format: ADME, cell-free
[24] = Stability in mouse plasma; format: ADME, cell-free
[25] = Stability in human plasma; format: ADME, cell-free

| SMILES | MIC (Pseudomonas aeruginosa [1]) [µg/mL] | IC50 [2] [nM] | MIC (Escherichia coli [3]) [µg/mL] | MIC (Escherichia coli [4]) [µg/mL] | MIC (Escherichia coli [5]) [µg/mL] | MIC (Klebsiella pneumoniae [6]) [µg/mL] | MIC (Klebsiella pneumoniae [7]) [µg/mL] | MIC (Pseudomonas aeruginosa [8]) [µg/mL] | MIC (Klebsiella pneumoniae [9]) [µg/mL] | MIC (Staphylococcus aureus [12]) [µg/mL] | MIC (Escherichia coli [13]) [µg/mL] | MIC (Pseudomonas aeruginosa [14]) [µg/mL] | MIC (Escherichia coli [15]) [µg/mL] | MIC (Acinetobacter baumannii [16]) [µg/mL] | MIC (Klebsiella pneumoniae [18]) [µg/mL] | MIC (Acinetobacter baumannii [20]) [µg/mL] | MIC (Acinetobacter baumannii [21]) [µg/mL] | IC50 [11] [nM] | inhibition at 1 µM (hERG (KCNH2) [17]) [%] | inhibition at 10 µM (hERG (KCNH2) [19]) [%] | other results |
| --- | --- | --- | --- | --- | --- | --- | --- | --- | --- | --- | --- | --- | --- | --- | --- | --- | --- | --- | --- | --- | --- |
| C[C@@H](N)COc1cc(F)c2c(c1)CC(CN1CCC3(CC1)CN(c1cnc4c(n1)NC(=O)CO4)C(=O)O3)C2 (stereo partly drawn) | 0.5 (≈ 0.95 µM) | 16 | ≤ 0.06 | 0.125 (≈ 0.237 µM) | ≤ 0.06 | 0.5 (≈ 0.95 µM) | 1 (≈ 1.9 µM) | 0.125 (≈ 0.237 µM) | 1 (≈ 1.9 µM) | ≤ 0.06 | ≤ 0.06 | 0.5 (≈ 0.95 µM) | ≤ 0.06 | 0.25 (≈ 0.475 µM) | ≤ 0.06 | 0.5 (≈ 0.95 µM) | ≤ 0.06 | > 20000 | 6.7 | 12 | IC20 (hERG (KCNH2) [10]): > 10000 nM; IC50 (DNA gyrase): 24 nM; MIC (Staphylococcus aureus [22]): ≤ 0.06 µg/mL |
| C[C@H](C(=O)Nc1cc(F)c2c(c1)CC(CNCCC1CN(c3cnc4c(n3)NC(=O)CO4)C(=O)O1)C2)N(C)C (stereo in doubt; 2e) | 2 (≈ 3.69 µM) | 8 | ≤ 0.06 | 0.25 (≈ 0.462 µM) | 0.125 (≈ 0.231 µM) | 2 (≈ 3.69 µM) | 2 (≈ 3.69 µM) | 1 (≈ 1.85 µM) | 16 (≈ 29.5 µM) | 0.25 (≈ 0.462 µM) | ≤ 0.06 | 2 (≈ 3.69 µM) | 0.25 (≈ 0.462 µM) | 4 (≈ 7.39 µM) | ≤ 0.06 | 8 (≈ 14.8 µM) | 0.125 (≈ 0.231 µM) | > 20000 | < 1 | < 1 | Stability [23]: Stable; IC20 ([11]; human, cho): > 10000 nM; Stability [24]: Stable; Stability [25]: Stable; IC50 (DNA gyrase): 38 nM; MIC (Staphylococcus aureus [22]): 0.5 µg/mL (≈ 0.923 µM) |
| CS(=O)(=O)NCCOc1cc(C#N)c2c(c1)CC(CNCCC1CN(c3ccc4c(n3)NC(=O)CO4)C(=O)O1)C2 (stereo not drawn) | 4 (≈ 7.01 µM) | 32 | 0.5 (≈ 0.876 µM) | 2 (≈ 3.5 µM) | 1 (≈ 1.75 µM) | 16 (≈ 28 µM) | 16 (≈ 28 µM) | 1 (≈ 1.75 µM) | 16 (≈ 28 µM) | 0.25 (≈ 0.438 µM) | ≤ 0.06 | 4 (≈ 7.01 µM) | 1 (≈ 1.75 µM) | 4 (≈ 7.01 µM) | ≤ 0.06 | 4 (≈ 7.01 µM) | 2 (≈ 3.5 µM) | > 20000 | < 1 | 30 | IC20 (hERG (KCNH2) [10]): 5900 nM; IC50 (DNA gyrase): 26 nM; MIC (Staphylococcus aureus [22]): 0.5 µg/mL (≈ 0.876 µM) |

Continued, in another order:

| MIC (Pseudomonas aeruginosa [1]) [µg/mL] | IC50 [2] [nM] | MIC (Escherichia coli [3]) [µg/mL] | MIC (Escherichia coli [4]) [µg/mL] | MIC (Escherichia coli [5]) [µg/mL] | MIC (Klebsiella pneumoniae [6]) [µg/mL] | MIC (Klebsiella pneumoniae [7]) [µg/mL] | MIC (Pseudomonas aeruginosa [8]) [µg/mL] | MIC (Klebsiella pneumoniae [9]) [µg/mL] | MIC (Staphylococcus aureus [12]) [µg/mL] | MIC (Escherichia coli [13]) [µg/mL] | MIC (Pseudomonas aeruginosa [14]) [µg/mL] | MIC (Escherichia coli [15]) [µg/mL] | MIC (Acinetobacter baumannii [16]) [µg/mL] | MIC (Klebsiella pneumoniae [18]) [µg/mL] | MIC (Acinetobacter baumannii [20]) [µg/mL] | MIC (Acinetobacter baumannii [21]) [µg/mL] | SMILES | IC50 [11] [nM] | inhibition at 1 µM (hERG (KCNH2) [17]) [%] | inhibition at 10 µM (hERG (KCNH2) [19]) [%] | other results |
| --- | --- | --- | --- | --- | --- | --- | --- | --- | --- | --- | --- | --- | --- | --- | --- | --- | --- | --- | --- | --- | --- |
| 0.5 (≈ 1.02 µM) | 6 | 0.125 (≈ 0.254 µM) | 0.25 (≈ 0.508 µM) | 0.25 (≈ 0.508 µM) | 2 (≈ 4.06 µM) | 2 (≈ 4.06 µM) | 0.125 (≈ 0.254 µM) | 4 (≈ 8.12 µM) | 0.5 (≈ 1.02 µM) | ≤ 0.06 | 1 (≈ 2.03 µM) | 0.25 (≈ 0.508 µM) | 16 (≈ 32.5 µM) | ≤ 0.06 | 16 (≈ 32.5 µM) | 1 (≈ 2.03 µM) | N#Cc1cc(OCCN)cc2c1CC(CNCCC1CN(c3ccc4c(n3)NC(=O)CO4)C(=O)O1)C2 (stereo not drawn) | > 20000 | < 1 | < 1 | IC20 (hERG (KCNH2) [10]): > 10000 nM; IC50 (DNA gyrase): 17 nM; MIC (Staphylococcus aureus [22]): 1 µg/mL (≈ 2.03 µM) |
| 0.5 (≈ 0.991 µM) | 29 | 0.125 (≈ 0.248 µM) | 0.5 (≈ 0.991 µM) | 0.5 (≈ 0.991 µM) | 4 (≈ 7.93 µM) | 4 (≈ 7.93 µM) | 0.125 (≈ 0.248 µM) | 8 (≈ 15.9 µM) | ≤ 0.06 | ≤ 0.06 | 1 (≈ 1.98 µM) | 0.5 (≈ 0.991 µM) | 8 (≈ 15.9 µM) | ≤ 0.06 | 4 (≈ 7.93 µM) | 4 (≈ 7.93 µM) | N#Cc1cc(OC2CNC2)cc2c1CC(CNCCC1CN(c3ccc4c(n3)NC(=O)CO4)C(=O)O1)C2 (stereo not drawn) | > 20000 | < 1 | < 1 | IC20 (hERG (KCNH2) [10]): > 10000 nM; IC50 (DNA gyrase): 51 nM; MIC (Staphylococcus aureus [22]): 0.5 µg/mL (≈ 0.991 µM) |
